Data published in patent US11530181B2, “IL-6 inhibitors and methods of treatment” (University of Florida Research Foundation, Incorporated, priority 2018, dated 2022).

Legend:
[1] = tested on: MCF7 breast cancer cell line; test: MTT cell viability assay, MCF7; format: cell-based, human; conditions: Homo sapiens; MCF7 (low IL-6), 48 h, 0% FBS medium
Experimental: (§1) Human breast cancer cell lines MCF7, MDA-MB-231 and SUM159 were maintained in Dulbecco's modified Eagle medium (DMEM). Human pancreatic cancer cell line BxPC-3 was maintained in RPMI 1640 medium. Human pancreatic cancer cell line Capan-1 was maintained in Iscove's Modified Dulbecco's Medium (IMEM). All media were supplemented with 10% FBS and 1% penicillin/streptomycin, and cells were incubated in a humidified 37° C. incubator with 5% CO2. PE/CA-PJ49 cell line was purchased from external sources and maintained according to manufacturer's protocol.
(§2) Cell viability was evaluated by using the MTT assay in triple replicates in one experiment and repeated for three times. Cancer cells were seeded in 96-well plates at a density of 3,000 cells per well. The cells were incubated at 37° C. for a period of 24 hours. […] After incubation for 48 or 72 hours, a stock solution of MTT (0.5 mg/ml) was then added to each well containing the treated cells, followed by incubation at 37° C. for 3 h. After removal of medium, the MTT dye was dissolved with spectrophotometric grade DMSO and the absorbance was read at 570 nm. The IC50 value is determined by interpolation based on the absorbance value halfway between positive and negative controls. […]

[2] = tested on: Capan-1 pancreatic cancer cell line; test: MTT cell viability assay, Capan-1; format: cell-based; conditions: Homo sapiens
Experimental: as §1
Cell viability was evaluated by using the MTT assay in triple replicates in one experiment and repeated for three times. Cancer cells were seeded in 96-well plates at a density of 3,000 cells per well. The cells were incubated at 37° C. for a period of 24 hours. Escalating concentrations of IL-6/gp130 inhibitors were added in triplicate to the plates in the presence of 10% FBS. After incubation for 48 or 72 hours, a stock solution of MTT (0.5 mg/ml) was then added to each well containing the treated cells, followed by incubation at 37° C. for 3 h. After removal of medium, the MTT dye was dissolved with spectrophotometric grade DMSO and the absorbance was read at 570 nm. The IC50 value is determined by interpolation based on the absorbance value halfway between positive and negative controls. […]

[3] = tested on: IL-11 induced STAT3 phosphorylation; test: Western blot, IL-11 induced STAT3 phosphorylation in MCF7; format: cell-based, human; conditions: MCF7, 15 μM, 2, 3 and 4 hours
Experimental: Cells were harvested and lysed in cold radioimmunoprecipitation assay (RIPA) lysis buffer containing proteasome inhibitor cocktail and phosphatase inhibitor cocktail. The protein concentrations were determined using the BCA Protein Assay kit. After adding the loading buffer and boiling at 95° C. for 10 minutes, equivalent amounts of proteins were loaded on and separated by SDS-PAGE, and then were transferred to PVDF membranes. Membranes were probed with primary antibodies (1:1000) against phospho-STAT3 (Tyr705), STAT3, phospho-STAT1 (Tyr701), STAT1, phospho-STAT6 (Tyr 641), STAT6, and GAPDH, respectively, and horseradish peroxidase (HRP)-conjugated secondary antibody (1:10000) (Cell Signaling Technology, Beverly, Mass.). Membranes were analyzed using Enhanced Chemiluminescence Plus reagents and either scanned with the Storm Scanner (Amersham Pharmacia Biotech, Inc., Piscataway, N.J.) or imaged with ChemiDoc MP imaging system (Bio-Rad, Hercules, Calif.). […] The cells were harvested after 30 minutes and analyzed by Western blot.
MCF7 breast cancer cells were seeded in 10 cm plates (1 million cells per plate) and allowed to adhere overnight. […] The cells were harvested after 30 minutes and analyzed by western blotting.

[4] = tested on: SUM159 breast cancer cell line; test: MTT cell viability assay, SUM159; format: cell-based, human; conditions: Homo sapiens, SUM159, 48 h, SUM159 (high IL-6), 0% FBS medium
[5] = tested on: MDA-MB-231 breast cancer cell line; test: MTT cell viability assay, MDA-MB-231; format: cell-based, human; conditions: Homo sapiens; MDA-MB-231 (medium IL-6), 48 h, 0% FBS medium
Experimental: as §1, §2

In the case of `O=C(Nc1cc(F)ccc1-n1cccc1)c1ccc(OCCCN2CCCCC2)cc1` [LLM4, N-(5-fluoro-2-(1H-pyrrol-1-yl)phenyl)-4-(3-(piperidin-1-yl)propoxy)benzamide], the IC50 [1] is reported as 4.51 µM, the IC50 [2] is reported as 35.1 µM and the “inhibition of IL-11 induced STAT3 phosphorylation” value [3] is reported as “also inhibited IL-11 induced STAT3 phosphorylation”. The IC50 [4] was 0.04 µM and the IC50 [5] was 0.97 µM.
